Experimental data as given in publication PMC10060354, “Discovery of a small molecule ligand of FRS2 that inhibits invasion and tumor growth” (Cellular Oncology, 2022).

Tested on: pFRS2Y436
Assay: IHC of pFRS2Y436 in SKOV3 flank tumor samples
Type: in vivo, mice
Settings: SKOV3 model; end of treatment
Procedure: IHC of tumor sections was performed by Sophistolab (Muttenz, Switzerland) on a Lecia BondMax instrument using Refine HRP-Kits (Leica DS9800). All buffer-solutions were purchased from Lecia Microsystems Newcastle, Ltd and used according to the manufacturer’s guidelines. Paraffin-slides were de-waxed, pre-treated and incubated as follows: ER-solution 2 for 10 min at 95 °C, ER-solution 2 for 20 min at 100 °C and ER-solution 2 for 30 min at 100 °C. pFRS2; Rabbit anti-Phospho FRS2 (PhosphoY 436, Abcam Limited; ab193363), dilution 1:150; phospho-p44/42 MAPK (Erk1/2Thr202/Tyr204) Rabbit mAb (Cell Signaling Technology #4370), dilution 1:1600. The IHC images were captured digitally using a Nikon Epifluorescence Eclipse Ti2 equipped with a Nikon DS-Ri2 color and a Nikon DS-Qi2 monochrome camera.

SMILES: O=[N+]([O-])c1c(Cl)cc(O)c2c1C1C=CCC1C(c1ccc(Cl)cc1)N2 (stereo not shown) [Compound 7]
- pFRS2 Y436 in tumor tissues by IHC (result in words): No clear difference in pFRS2 Y436
